Experimental data published in US11160788B2, “Caspase-1 inhibition and uses thereof for prevention and treatment of neurological conditions” (priority 2016, dated 2021).

Tests used:
J20 mice [1] = assay: Barnes maze spatial memory, treatment of symptomatic J20 mice; type: in vivo, mouse
Description: FIG. 8: VX-765 treatment restores cognitive function in J20 mice. (a) Experimental paradigm. Intraperitoneal vehicle-injected wild type (WT+Vehicle; n=13) and J20 mice (J20+Vehicle: n=9), and VX-765-injected J20 mice (J20+VX-765: n=9) mice were behaviourally assessed at 5 different time-points: baseline before treatment (baseline untreated J20 were grouped together; n=18), after 3 IP injections/wk of VX-765 or vehicle (Treatment 1), after 6 additional injections over 2 weeks (Treatment 2), after 4-week Washout period, and after an additional 3 injections in one week (Treatment 3). Mice were sacrificed at 8 months of age after Treatment 3 (b) NOR Discrimination index (Treatment main effect, F(2,20)=85.8, p<0.0001; Time main effect, F(4,80)=4.188, p=0.0039; Treatment×Time interaction, F(8,80)=[…], two-way repeated-measures ANOVA, Dunnett's post-hoc compared to J20+Vehicle). (c) Distance traveled during Open Field task. Data analyzed by repeated measures two-way ANOVA (Treatment main effect, F(2,19)=11.47, p=0.0005; Treatment×Time interaction, F(8,76)=5.69, p<0.0001, two-way repeated-measures ANOVA, Dunnett's post-hoc compared to J20+Vehicle). (d-i) Barnes maze analysis. Learning acquisition (d,g), probe test primary latency and errors (e,h), and target hole preference (f,i); # of pokes of each hole labelled +1 to +9 to the right or −1 to −9 to the left of the target hole during the probe) after Treatment 2 (d-f) and Washout (g-i). Probe tests were analyzed (Treatment 2 primary latency, F(2,52)=5.879, p=0.0050; Treatment 2 primary errors, F(2,52)=9.998, p=0.0002; Washout primary latency, F(2,22)=4.076, p=0.0312; Washout primary errors, F(2,22)=10.84, p=0.0005, ANOVA, Tukey's post-hoc). * p<0.05, ***p<0.001, ****p<0.0001.
FIG. 9: VX-765 dose-dependently restores cognitive function in J20 mice. (a) NOR discrimination index after VX-765 dose response at Treatment 1 (F(3,24)=20.42, p<0.0001, ANOVA, Dunnett's post-hoc compared to J20 0 mg/kg), Treatment 2 (F(3,23)=12.83, p<0.0001, ANOVA, Dunnett's post-hoc compared to J20 0 mg/kg), Washout, and Treatment 3 (F(3,23)=8.828, p=0.0004, ANOVA, Dunnett's post-hoc compared to J20 0 mg/kg). Note that the 50 mg/kg dose was not performed at the same time and is placed here for comparison purposes only. Nevertheless, the discrimination index was stable between experiments (b-g) Barnes maze Treatment 2 (b-d) and Washout (e-g) learning acquisition (b,e), probe test (c,f), and target hole preference (d,g). For T2 primary errors, F(2,14)=5.69, p=0.0155, ANOVA, Dunnett's post-hoc compared to J20+Vehicle. * p<0.05, ***p<0.001, ****p<0.0001.
Anxiety and hyperactivity are monitored in an open-field paradigm, episodic memory with the NOR, spatial memory with the Barnes maze, and short or long term working memory with the Y maze before and after treatments. Repeated measures are acceptable for the NOR, Barnes and Y maze^2-4.
Five month old mice were behaviorally and longitudinally assessed before treatment (baseline), after 3 injections/week of 50 mg/kg VX-765 (Treatment 1; T1), after an additional 2 weeks of injections (Treatment 2; T2), after 4 weeks without treatment (Washout; WO), and after 3 more injections/week (Treatment 3; T3) before sacrificing the mice at 8 months of age as illustrated in FIG. 8a. […] Results were consistent across individual mice (FIG. 15c). […] However, during the probe test, the primary latency, primary errors (FIG. 8e) and the ability to find the target (T) escape hatch (FIG. 8f) were clearly impaired in vehicle-injected J20 compared to WT littermates. […] After WO, all mice performed well during the training phase of the Barnes maze (FIG. 8g). […] J20 mice performance in the Y maze working memory task was consistently low but not always statistically different from WT or treated J20 mice (FIG. 15e).

J20 mice [2] = assay: APP, Casp1, Casp6, IDE and neprilysin expression, treated symptomatic J20 mice; type: in vivo, mouse; conditions: RT-PCR, J20 brains, preliminary
Description: FIG. 5: Western blot against the C-terminus (C11) and Aβ (6E10) regions of APP in TREATMENT mice groups before washout.
FIG. 11: VX-765 prevents the progression of Aβ in J20 mice. (a) Aβ immunohistographs of the stratum lacunosum molecular layer of the hippocampus and S1 cortex of pre-treated 5-month old J20 (baseline) and 8-month old vehicle- or VX-765-treated WT or J20 mice with anti-F2576 antiserum (Scale bar=50 μm). (b) Quantitative analysis comparing Aβ immunostaining density between J20+Vehicle (n=5) and J20+VX-765 (n=4) mice in the hippocampus from the pyramidal cell layer to the stratum lacunosum molecular layer (p=0.0029) and cortex (p=0.0314, unpaired t test). (c) Quantitative analysis comparing RIPA-soluble Aβ42 over total Aβ (Aβ38+Aβ40+Aβ42) levels in pre-treated 5-month old J20, 8-month old vehicle- or VX-765 treated J20 mice hippocampus (F(2,9)=6.614, p=0.0171, ANOVA, Tukey's post-hoc, * p<0.05). No ELISA signal was obtained from WT mice brains. (d) RIPA-soluble total Aβ measured by ELISA in pg/mg brain tissue. (e,f) Formic acid soluble Aβ42 over total Aβ (Aβ38+Aβ40+Aβ42) (e) and total Aβ (f) levels measured by ELISA in pg/mg brain tissue. Student t-test used to assess difference between J20+vehicle and J20+VX-765. (g,h,i) RIPA-soluble and (j,k,l) formic acid soluble Aβ38, Aβ40, and Aβ42 measured by ELISA in pg/mg brain tissue. […]

Q: What does the source list for `CCO[C@@H]1OC(=O)C[C@@H]1NC(=O)[C@@H]1CCCN1C(=O)[C@@H](NC(=O)c1ccc(N)c(Cl)c1)C(C)(C)C` [VX-765, (S)-1-((S)-2-{[1-(4-amino-3-chloro-phenyl)-methanoyl]-amino}-3,3-dimethyl-butanoyl)-pyrrolidine-2-carboxylic acid ((2R,3S)-2-ethoxy-5-oxo-tetrahydro-furan-3-yl)-amide]?
A: Barnes maze ability to recognize the escape hatch in probe test (J20 mice [1]; 10 mg/kg, after Treatment 2): improved in their ability to recognize the escape hatch; Barnes maze primary latency (J20 mice [1]; 10 mg/kg, after Treatment 2): remained impaired in primary latency; Barnes maze primary latency and errors (J20 mice [1]; 10 mg/kg, after washout): No significant difference; Barnes maze ability to recognize the escape hatch in probe test (J20 mice [1]; 25 mg/kg, after Treatment 2): improved in their ability to recognize the escape hatch; Barnes maze primary errors (J20 mice [1]; 25 mg/kg, after Treatment 2): decreased; Barnes maze primary latency (J20 mice [1]; 25 mg/kg, after Treatment 2): remained impaired in primary latency; Barnes maze primary latency and errors (J20 mice [1]; 25 mg/kg, after washout): No significant difference; Barnes maze recognition of the position of the escape hatch (J20 mice [1]; 25 mg/kg, after washout): retained the ability to recognize the position of the escape hatch; Barnes maze probe test: primary latency, primary errors, finding target hatch (J20 mice [1]; 50 mg/kg IP, after Treatment 2): eliminated these spatial memory deficits; Barnes maze ability to find the target hatch (J20 mice [1]; 50 mg/kg IP, after washout): performed better than vehicle-injected J20 mice; Barnes maze probe test primary latency and errors (J20 mice [1]; 50 mg/kg IP, after washout): appeared normal in primary latency and errors; Casp1 and Casp6 mRNA (J20 mice [2]): reduction
